Measurements as given in patent publication US3982931A, “N,N-di-sec.butyl-benzamide herbicides” (priority 1967, dated 1976).

Tests used:
oryza sativa L. (rice) = experiment: activity on agrarian species, soil treatment one day after sowing; assay type: in vivo
Procedure, shortened: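 Activity scored 0 (no difference from control) to 4 (no germination or total containment of emerging plants), intermediates given both classes. Product spread on soil one day after sowing rice, at rates of 1, 3, 6, 8, 10, 12 and 14 kg/ha.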

avena sativa (oats) = experiment: as above; assay type: in vivo, Avena sativa L.
[1] = test system: triticum vulgare L. (wheat); experiment: as above; assay type: in vivo
Procedure, shortened: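 Wheat effects rated against untreated control on a 0 (no difference) to 4 (no germination or emergence fully contained) scale, with two-class scores for intermediate activity. Application was to soil one day post-sowing at rates of 1, 3, 6, 8, 10, 12 and 14 kg/ha.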

setaria glauca L. = experiment: herbicidal activity, soil treatment one day after sowing; assay type: in vivo
Echinocloa crus-galli = experiment: Example 2 basin test, rice-field soil, granular composition; assay type: in vivo; conditions: 4 - 6 - 8 kg/ha
Description: (§1) Into 2 sq.m. basins containing rice-field soil were sown rice and Echinocloa crus-galli. After having submerged the soil with 10 cm of water, treatments were carried out by distributing uniformly on the soil a granular composition containing 5% of PA 300 and 95% of bentonite in doses equal to 0 - 4 - 6 - 8 kg of active principle per hectar.

rice = experiment: as above; assay type: in vivo; conditions: 4 - 6 - 8 kg/ha
Description: as §1

[2] = test system: phaseolus vulgaris (bean); experiment: activity on agrarian species, soil treatment one day after sowing; assay type: in vivo, Phaseolus vulgaris L.
Procedure, shortened: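 Activity on bean was rated from 0 (no difference from control) to 4 (germination prevented or plants fully contained at emergence), with both classes noted for intermediate effects. Soil treatment one day after sowing, at rates of 1, 3, 6, 8, 10, 12 and 14 kg/ha.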

pisum sativum L. (pea) = experiment: as above; assay type: in vivo
[3] = test system: echinocloa crus-galli R.S.; experiment: herbicidal activity, soil treatment one day after sowing; assay type: in vivo
zea mais L. (corn) = experiment: activity on agrarian species, soil treatment one day after sowing; assay type: in vivo
Procedure, shortened: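 Crop injury rated 0–4 relative to control, from no difference up to complete germination failure or arrest of emerging plants; in-between responses get both values. Product spread on soil at 1–14 kg/ha (1, 3, 6, 8, 10, 12, 14) one day post-sowing.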

chenopodium album L. = experiment: herbicidal activity, soil treatment one day after sowing; assay type: in vivo
vicia sativa L. = experiment: as above; assay type: in vivo
Procedure, shortened: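 Pre-emergence soil treatment one day after sowing; activity scored visually on a […] scale against untreated control, from slight difference (1) to no germination or total containment at emergence (4); intermediate activity recorded as both classes, preeminent value first.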

[4] = test system: amaranthus retroflexus L.; experiment: as above; assay type: in vivo
artemisia vulgaris L. = experiment: as above; assay type: in vivo
[5] = toxicity towards warm-blooded animals, LD 50 per os on rat; conditions: in vivo, po

SMILES: CCC(C)N(C(=O)c1cc(Cl)cc(Cl)c1Cl)C(C)CC (stereo not drawn) [PA300, 2,3,5-trichloro-N,N-di-sec.butyl-benzamide]
- activity on P, 0-4 scale (oryza sativa L. (rice); 3 kg/ha): 0
- activity on P, 0-4 scale (oryza sativa L. (rice); 6 kg/ha): 0
- activity on G, 0-4 scale (avena sativa (oats); 3 kg/ha): 0
- activity on G, 0-4 scale (avena sativa (oats); 6 kg/ha): 1
- activity on N, 0-4 scale ([1]; 3 kg/ha): 0
- activity on N, 0-4 scale ([1]; 6 kg/ha): 0
- activity on E, 0-4 scale (setaria glauca L.; 1 kg/ha): 3-4
- activity on E, 0-4 scale (setaria glauca L.; 2 kg/ha): 4-3
- activity on E, 0-4 scale (setaria glauca L.; 4 kg/ha): 4
- activity on E, 0-4 scale (setaria glauca L.; 6 kg/ha): 4
- development of Echinocloa crus-galli plants (Echinocloa crus-galli): no Echinocloa crus-galli plant developed
- development of rice (rice): the rice developed regularly
- activity on I, 0-4 scale ([2]; 3 kg/ha): 0
- activity on I, 0-4 scale ([2]; 6 kg/ha): 0
- activity on L, 0-4 scale (pisum sativum L. (pea); 3 kg/ha): 0
- activity on L, 0-4 scale (pisum sativum L. (pea); 6 kg/ha): 0
- activity on D, 0-4 scale ([3]; 1 kg/ha): 3
- activity on D, 0-4 scale ([3]; 2 kg/ha): 3-4
- activity on D, 0-4 scale ([3]; 4 kg/ha): 4-3
- activity on D, 0-4 scale ([3]; 6 kg/ha): 4
- activity on O, 0-4 scale (zea mais L. (corn); 3 kg/ha): 0
- activity on O, 0-4 scale (zea mais L. (corn); 6 kg/ha): 0
- activity on C, 0-4 scale (chenopodium album L.; 1 kg/ha): 0-1
- activity on C, 0-4 scale (chenopodium album L.; 2 kg/ha): 1
- activity on C, 0-4 scale (chenopodium album L.; 4 kg/ha): 1-2
- activity on C, 0-4 scale (chenopodium album L.; 6 kg/ha): 1-2
- activity on F, 0-4 scale (vicia sativa L.; 1 kg/ha): 0
- activity on F, 0-4 scale (vicia sativa L.; 2 kg/ha): 0
- activity on F, 0-4 scale (vicia sativa L.; 4 kg/ha): 0
- activity on F, 0-4 scale (vicia sativa L.; 6 kg/ha): 0
- activity on A, 0-4 scale ([4]; 1 kg/ha): 0-1
- activity on A, 0-4 scale ([4]; 2 kg/ha): 1
- activity on A, 0-4 scale ([4]; 4 kg/ha): 1
- activity on A, 0-4 scale ([4]; 6 kg/ha): 1
- activity on B, 0-4 scale (artemisia vulgaris L.; 1 kg/ha): 0-1
- activity on B, 0-4 scale (artemisia vulgaris L.; 2 kg/ha): 1-0
- activity on B, 0-4 scale (artemisia vulgaris L.; 4 kg/ha): 1
- activity on B, 0-4 scale (artemisia vulgaris L.; 6 kg/ha): 1

SMILES: CCC(C)N(CC)C(=O)c1ccc(Cl)c(Cl)c1 (stereo not drawn) [PA631, 3,4-dichloro-N-ethyl,N-sec.butyl-benzamide]
- activity on E, 0-4 scale (setaria glauca L.; 6 kg/ha): 3
- activity on D, 0-4 scale ([3]; 6 kg/ha): 3
- activity on C, 0-4 scale (chenopodium album L.; 6 kg/ha): 3
- activity on F, 0-4 scale (vicia sativa L.; 6 kg/ha): 0-1
- activity on A, 0-4 scale ([4]; 6 kg/ha): 2
- activity on B, 0-4 scale (artemisia vulgaris L.; 6 kg/ha): 2
- LD50 [5]: 930 mg/kg
